Measured values: patent US20110201664A1, “Methods and Compositions for Treatment of Prostate Intraepithelial Neoplasia” (priority 2006, published 2011)

Tested on: High Grade PIN
Test: Treatment of a patient with High Grade PIN, repeat prostate biopsy
Assay type: in vivo, human
Conditions: person with High Grade PIN; 225 mg per day once daily, 30 doses; 12 biopsies two weeks after last dose; on Atorvastatin 20 mg daily
Description: A person was diagnosed as having High Grade PIN. The diagnosis was based upon 12 biopsies which were done in conjunction with ultrasound localization of the biopsy site, with careful recording of there anatomical position. The patient was started on Bexarotene 225 mg per day. The drug was given as a single dose once daily. […] During the period of therapy the patient was on Atorvastatin 20 mg daily. During the therapy, total cholesterol was 183 mg with a reference range <200 mg/dL, triglycerides were 207 with normal being less than 150 mg/dL, thyroid stimulation hormone (TSH) was 0.07 with the reference range 0.4-5.5 mIU/L, T4 total was 7.4 with the normal range 4.5-12.0 mcg/dL. The Hepatic Function Panel was normal as was the complete blood count (CBC). Two weeks following the last dose of Bexarotene the prostate was rebiopsied with 12 biopsies taken. Six of the biopsies were taken from the putative area, the rest in an enlarging target like pattern. The repeat biopsy was negative for the presence of PIN.

SMILES: C=C(c1ccc(C(=O)O)cc1)c1cc2c(cc1C)C(C)(C)CCC2(C)C [Bexarotene, 4-[1-(5,6,7,8-tetrahydro-3,5,5,8,8-pentamethyl-2-naphthalenyl)ethenyl] benzoic acid]
- Repeat biopsy, presence of PIN: negative
